Data from US12516054B2, “Pyrazolo[1,5-a]pyridine derivatives, preparation method therefor and use thereof” (SHANGHAI DAIDAI INVESTMENT CONSULTING CO., LTD, priority 2019, dated 2026).

Tests used:
[1] = tested on: TT cells; assay: Inhibition of proliferation of tumor cells with abnormal RET (TT cells), CellTiter-Glo; type: cell-based; conditions: 192 h, TT cells (human MTC, RET C634W), incubated 8 d, read-out: IC50 for inhibition on TT cell proliferation
Procedure: The following method was used to determine the inhibitory activity of the preferred compound of the present disclosure on the proliferation of TT cells in vitro. TT cells were a human medullary thyroid cancer (MTC) cell line, including the RET C634W mutation. The cell line was purchased from the American ATCC (Cat. No. ATCC® CRL-1803). The cells were cultivated at 37° C. and 5% CO2 with the Ham's F-12K (Kaighn's) medium (purchased from Thermofisher, Gibco, Cat. No. 21127022) that was supplemented with 10% fetal bovine serum (FBS, purchased from Thermofisher, Gibco, Cat. No. 12483-020), 1× Glutamax (purchased from Thermofisher, Gibco, Cat. No. 35050061), 1× non-essential amino acids (purchased from Thermofisher, Gibco, Cat. No. 11140050), and 1× Pen/Strep antibiotics (purchased from Thermofisher, Gibco, Cat. No. 15140122). Cell viability was determined using CellTiter-Glo® Luminescent Cell Viability Assay (Cat. No. G7573) of Promega.
Brief description of an experimental method: The day before the formal experiment, the cells at the logarithmic growth phase were digested with trypsin (purchased from Thermofisher, Gibco, Cat. No. 25300054), then an appropriate volume of the medium was added to terminate the trypsin reaction, and a resulting mixture was centrifuged at a speed of 1,000 rpm; a resulting supernatant was removed, and fresh medium was added to prepare a cell suspension; and 50 µL of the cell suspension was added to a 96-well cell culture plate (purchased from Corning, Cat. No. 3904) with a cell density of 6,000 cells/well, and then the cell culture plate was incubated overnight at 37° C. and 5% CO2. […] After the incubation was completed, 50 μL of a CellTiter-Glo reagent was added to each well, a resulting mixture was thoroughly shaken and then incubated at room temperature for 10 min in the dark, and then a signal of each well was read on the Envision microplate reader (Perkin Elmer). […]

[2] = target: GST-hRET kinase (658-1114) (Homo sapiens (Human), UniProt P07949); assay: Inhibitory activity on RET enzyme (HTRF KinEASE-TK); type: biochemical; conditions: 0.5 nM RET kinase, 10 μM ATP, read-out: IC50 for inhibition on RET enzyme activity
Procedure: 2. Reagent Preparation • (1) 1× enzyme reaction buffer: 5× enzyme reaction buffer was diluted with ultrapure water (UPW) at 4:1, and then 25 nM SEB was added. • (2) 5×RET kinase: RET kinase was diluted with 1× enzyme reaction buffer to 2.5 nM. • (3) 5×ATP: ATP was diluted with 1× enzyme reaction buffer to 50 μM. • (4) 5× substrate: TK substrate-biotin was diluted with 1× enzyme reaction buffer to 2,500 nM. • (5) 2.5× compound: The highest final concentration was 2,500 nm, 3-fold gradient dilution was conducted to obtain 10 dilution points, and a final DMSO concentration was 0.4%. • (6) 4× Steptavidin-XL665: Steptavidin-XL665 was diluted with 1× enzyme reaction buffer to […]. 3. Experimental Process • (1) 5×RET kinase was added to a 384-well plate at 2 μl/well (final concentration of 0.5 nM), and a blank group (enzyme reaction buffer) was set as a negative control. • (2) A 2.5× compound solution was added at 4 μl/well, and then the plate was incubated at room temperature for 30 min. A DMSO group was set as a positive control. • (3) 5× substrate (at 2 μl/well, final concentration: 500 nM) and 5×ATP (at 2 μl/well, final concentration: 10 μM) were added to start a reaction, and the reaction was conducted at room temperature for 30 min. • (4) TK Antibody-Cryptate (at 5 μl/well) and 4× Steptavidin-XL665 (at 5 μl/well, final concentration: […]) were added, and the plate was incubated at room temperature for 60 min. • (5) An HTRF signal was read on Envision. 4. Data Analysis
The dosage effect (IC50) of the compound with analyzed using the Graph Pad prism software.

Sequence of GST-hRET kinase (658-1114) (P07949 658-1114): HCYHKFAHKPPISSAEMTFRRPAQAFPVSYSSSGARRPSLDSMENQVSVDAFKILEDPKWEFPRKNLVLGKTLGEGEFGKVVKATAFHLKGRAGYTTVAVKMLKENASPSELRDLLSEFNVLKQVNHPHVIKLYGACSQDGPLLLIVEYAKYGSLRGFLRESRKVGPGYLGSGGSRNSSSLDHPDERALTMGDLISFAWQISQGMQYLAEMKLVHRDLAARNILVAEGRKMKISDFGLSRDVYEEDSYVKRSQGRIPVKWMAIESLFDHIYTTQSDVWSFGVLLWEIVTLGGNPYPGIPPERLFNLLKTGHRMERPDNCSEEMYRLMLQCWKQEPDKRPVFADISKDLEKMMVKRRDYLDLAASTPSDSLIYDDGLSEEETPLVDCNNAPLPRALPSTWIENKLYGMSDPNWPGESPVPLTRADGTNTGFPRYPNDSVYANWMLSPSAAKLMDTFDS

Row | Structure (SMILES) | IC50 [1] [nM] | IC50 [2] [nM]
1 | COc1ccc(CN2CC=C(c3ccc(-c4cc(-c5cnn(C)c5)cn5ncc(C#N)c45)cn3)CC2)cn1 [Compound 1, 4-(1′-((6-methoxypyridin-3-yl)methyl)-1′,2′,3′,6′-tetrahydro-[2,4′-bipyridin]-5-yl)-6-(1-methyl-1H-pyrazol-4-yl)pyrazolo[1,5-a]pyridine-3-carbonitrile] | 28.9 | 23.1
2 | COc1ccc(CN2CC=C(c3ccc(-c4cc(OCC(C)(C)O)cn5ncc(C#N)c45)cn3)CC2)cn1 [Compound 2, 6-(2-hydroxy-2-methylpropoxy)-4-(1′-((6-methoxypyridin-3-yl)methyl)-1′,2′,3′,6′-tetrahydro-[2,4′-bipyridin]-5-yl)pyrazolo[1,5-a]pyridine-3-carbonitrile] | – | 25.4
3 | COc1ccc(CN2C3CC2CN(c2ccc(-c4cc(CCC(C)(C)O)cn5ncc(C#N)c45)cn2)C3)cn1 [Compound 10, 6-(3-hydroxy-3-methylbutyl)-4-(6-(6-((6-methoxypyridin-3-yl)methyl)-3,6-diazabicyclo[3.1.1]heptan-3-yl)pyridin-3-yl)pyrazolo[1,5-a]pyridine-3-carbonitrile] | 68.6 | 5.6
4 | COc1ccc(C(=O)N2CC=C(c3ccc(-c4cc(OCC(C)(C)O)cn5ncc(C#N)c45)cn3)CC2)cn1 [Compound 8, 6-(2-hydroxy-2-methylpropoxy)-4-(1′-(6-methoxynicotinoyl)-1′,2′,3′,6′-tetrahydro-[2,4′-bipyridin]-5-yl)pyrazolo[1,5-a]pyridine-3-carbonitrile] | 87.8 | –
